According to patent US10376488B2, “Use of flavonoids in manufacturing compositions for wound healing” (ONENESS BIOTECH CO., Ltd, priority 2014, dated 2019):
Marks after values point to notes of the source that are not given here.

System: diabetic wound
Test: Diabetic wound healing test in STZ-induced hyperglycemic rats
Type: in vivo
Set-up: CT50: wound half-closure time: unit not given beside the values
Details: 0.5% ointment applied to wounds, mean±SEM, n = 6
Description: After rats' body weight reach 300 g, the induction of hyperglycemia was carried out with streptozotocin (STZ) (65 mg/kg, ip administration). […] Hyperglycemic animals with a body weight less than 300 g were excluded, and random grouping was performed. Animals were anesthetized with pentobarbital and then their backs were shaved and disinfected. Three pieces of animal skin (full thickness) were harvested from the back of the animals at points 4, 6 and 8 cm from the midpoint of the two scapula with an 1- cm-diameter drilling round knife.
Wounds of each animal were applied with testing agents. New skins were harvested for examination after the end of experiment.
Analyzing the areas of the three wounds on the back of each rat by image pro with the area on day zero as the original wound area. The original wound area is subtracted by the wound area at each time point and then divided by the original wound area to serve as the percentage of wound healing. The average value of the three percentages of wound healing of each rat is considered as the respective would healing extent of each rat. The number of rats was 6 for each group of each test. Data is expressed as mean±SEM. P value is calculated for the test results by t-test against control group, where P<0.05 indicates significant differences, denoted *.
A 0.5% cirsimaritin composition was prepared in an ointment form, and was applied to the rats as treated above. The comparison between the percentages of wound healing at 9, 11, 13, and 15 days after administration, and the untreated control group is shown below. There were significant differences for each group.

COc1cc2oc(-c3ccc(O)cc3)cc(=O)c2c(O)c1OC [cirsimaritin]
CT50: wound half-closure time: 10.7 ± 0.4*
percentage of wound healing (9 days after administration): 37.2 ± 3.9* %
percentage of wound healing (11 days after administration): 51.5 ± 3.1* %
percentage of wound healing (13 days after administration): 70.6 ± 3.5* %
percentage of wound healing (15 days after administration): 83.3 ± 3.2* %
